# Reference: PubChem BioAssay (NCI)
#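 Protocol summary: plate cells (96-well), add compound at 5 concentrations, incubate 48 h, interpolate endpoints linearly. GI50 = concentration required for 50% inhibition of growth. TGI marks complete inhibition of growth.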
# Experiments:
# Assay in all cases: DTP human tumour cell line panel, 48 h
# [1] = test system: HCT-15 colon
# [2] = test system: SK-OV-3 ovarian
# [3] = test system: RXF 393 renal
# [4] = test system: HCT-116 colon
# [5] = test system: SF-295 CNS
# [6] = test system: TK-10 renal
# [7] = test system: SW-620 colon
# [8] = test system: NCI-H460 lung
# [9] = test system: HOP-62 NSCLC
# [10] = test system: NCI-H522 lung
# [11] = test system: M14 melanoma
# [12] = test system: 786-0 renal
# [13] = test system: A549 NSCLC
# [14] = test system: SK-MEL-28 melanoma
# [15] = test system: UO-31 renal
# [16] = test system: OVCAR-8 ovarian
# [17] = test system: HL-60(TB) leukemia
# [18] = test system: UACC-257 melanoma
# [19] = test system: SK-MEL-2 melanoma
# [20] = test system: MOLT-4 leukemia
# [21] = test system: UACC-62 melanoma
# [22] = test system: U251 CNS
# [23] = test system: OVCAR-5 ovarian
# [24] = test system: NCI-H226 lung
# [25] = test system: SNB-19 CNS
# [26] = test system: SNB-75 CNS
# [27] = test system: OVCAR-3 ovarian
# [28] = test system: SF-268 CNS
# [29] = test system: T-47D breast
# [30] = test system: HS 578T breast
# [31] = test system: NCI-H23 lung
# [32] = test system: SK-MEL-5 melanoma
# [33] = test system: PC-3 prostate
# [34] = test system: EKVX NSCLC
# [35] = test system: MDA-MB-435
# [36] = test system: ACHN renal
# [37] = test system: OVCAR-4 ovarian
# [38] = test system: RPMI-8226 leukemia
# [39] = test system: COLO 205 colon
# [40] = test system: MCF7 breast
# [41] = test system: A498 renal
# [42] = test system: HOP-92 NSCLC
# [43] = test system: MDA-MB-231 breast
# [44] = test system: SR leukemia
# [45] = test system: BT-549 breast
# [46] = test system: IGROV1 ovarian
# [47] = test system: SN12C renal
# [48] = test system: MALME-3M melanoma
# [49] = test system: NCI/ADR-RES ovarian
# [50] = test system: LOX IMVI melanoma
# [51] = test system: K-562 leukemia
# [52] = test system: CCRF-CEM leukemia
# [53] = test system: DU-145 prostate
# [54] = test system: HT29 colon
# [55] = test system: KM12 colon
# [56] = test system: CAKI-1 renal
# [57] = test system: SF-539 CNS
# [58] = test system: HCC-2998 colon
compound,measurement,setting,value
O=C1COCCN1c1ccc(NCc2cn(Cc3ccc(F)cc3)c3ccccc23)cc1,GI50,[1],4.13 µM
same,TGI,[1],31 µM
same,GI50,[2],1.65 µM
same,TGI,[2],8.14 µM
same,GI50,[3],0.911 µM
same,TGI,[3],5.76 µM
same,GI50,[4],0.0618 µM
same,TGI,[4],14 µM
same,GI50,[5],0.927 µM
same,TGI,[5],27.5 µM
same,GI50,[6],0.0456 µM
same,TGI,[6],0.636 µM
same,GI50,[7],0.562 µM
same,TGI,[7],> 52.6 µM
same,GI50,[8],0.133 µM
same,TGI,[8],29.2 µM
same,GI50,[9],0.783 µM
same,TGI,[9],> 31.7 µM
same,GI50,[10],2.75 µM
same,TGI,[10],17.8 µM
same,GI50,[11],5.46 µM
same,TGI,[11],40.8 µM
same,GI50,[12],2.7 µM
same,TGI,[12],41 µM
same,GI50,[13],1.68 µM
same,TGI,[13],> 100 µM
same,GI50,[14],15.4 µM
same,TGI,[14],77.9 µM
same,GI50,[15],2.42 µM
same,TGI,[15],18.2 µM
same,GI50,[16],4.3 µM
same,TGI,[16],> 86.8 µM
same,GI50,[17],4.8 µM
same,TGI,[17],24.3 µM
same,GI50,[18],0.204 µM
same,TGI,[18],0.844 µM
same,GI50,[19],0.779 µM
same,TGI,[19],6.06 µM
same,GI50,[20],11.6 µM
same,TGI,[20],> 68.9 µM
same,GI50,[21],0.0978 µM
same,TGI,[21],0.617 µM
same,GI50,[22],0.645 µM
same,TGI,[22],38.5 µM
same,GI50,[23],0.0418 µM
same,TGI,[23],0.231 µM
same,GI50,[24],0.0593 µM
same,TGI,[24],0.275 µM
same,GI50,[25],19.4 µM
same,TGI,[25],> 100 µM
same,GI50,[26],2.03 µM
same,TGI,[26],13 µM
same,GI50,[27],0.313 µM
same,TGI,[27],2.96 µM
same,GI50,[28],9.7 µM
same,TGI,[28],50.4 µM
same,GI50,[29],0.0522 µM
same,GI50,[30],3.41 µM
same,TGI,[30],44.1 µM
same,GI50,[31],2.64 µM
same,TGI,[31],32.1 µM
same,GI50,[32],2.6 µM
same,TGI,[32],11.2 µM
same,GI50,[33],8.68 µM
same,TGI,[33],45.2 µM
same,GI50,[34],10.8 µM
same,TGI,[34],> 66.7 µM
same,GI50,[35],14.5 µM
same,TGI,[35],32.1 µM
same,GI50,[36],2.91 µM
same,TGI,[36],31.4 µM
same,GI50,[37],0.173 µM
same,TGI,[37],3 µM
same,GI50,[38],0.662 µM
same,TGI,[38],8.8 µM
same,GI50,[39],0.664 µM
same,TGI,[39],5.29 µM
same,GI50,[40],0.114 µM
same,TGI,[40],13 µM
same,GI50,[41],0.0203 µM
same,TGI,[41],0.0821 µM
same,GI50,[42],1.74 µM
same,TGI,[42],11.8 µM
same,GI50,[43],4.9 µM
same,TGI,[43],27.5 µM
same,GI50,[44],3.84 µM
same,TGI,[44],> 100 µM
same,GI50,[45],3.47 µM
same,TGI,[45],22.4 µM
same,GI50,[46],0.0668 µM
same,TGI,[46],1.05 µM
same,GI50,[47],4.08 µM
same,TGI,[47],> 83.7 µM
same,GI50,[48],3.47 µM
same,TGI,[48],15.4 µM
same,GI50,[49],5.44 µM
same,TGI,[49],45.3 µM
same,GI50,[50],5.32 µM
same,TGI,[50],25.3 µM
same,GI50,[51],1.25 µM
same,TGI,[51],> 51.3 µM
same,GI50,[52],5.4 µM
same,TGI,[52],> 96.4 µM
same,GI50,[53],5.33 µM
same,TGI,[53],> 69.1 µM
same,GI50,[54],1.67 µM
same,TGI,[54],> 100 µM
same,GI50,[55],15 µM
same,TGI,[55],> 75.9 µM
same,GI50,[56],0.0252 µM
same,TGI,[56],0.418 µM
same,GI50,[57],7.36 µM
same,TGI,[57],33.1 µM
same,GI50,[58],11.1 µM
same,TGI,[58],51.7 µM
